Key:
[1] = test system: Glomerella lagenarium (Colletotrichum lagenarium); assay: Fungicidal activity against Glomerella lagenarium (Colletotrichum lagenarium) liquid culture / cucumber / preventative (anthracnose); assay type: cell-based; settings: Colletotrichum orbiculare; 20 ppm in the applied formulation; liquid culture (PDB), growth inhibition measured photometrically after 3 to 4 days; compared to untreated control; read-out: disease control
In short: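 Percent activity against the untreated check was derived from photometric growth measurements made 2 to 7 days after conidia in potato dextrose broth were combined with compound at 20 ppm. Cultures were kept dark at 24 °C and 96% humidity.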

[2] = test system: Puccinia recondita f. Sp. Tritici; assay: Fungicidal activity against Puccinia recondita f. sp. tritici / wheat / leaf disc curative (brown rust); assay type: in vivo; settings: foliar, 24 h, 200 ppm in the applied formulation, wheat leaf segments, curative (applied 1 day after inoculation), compared to untreated control leaf disks, read-out: disease control
In short: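 Inoculate cv. Kanzler segments on agar; hold dark, 19° C, 75% RH. Spray diluted formulated compound at day 1. Incubate 12 h light/12 h dark, same temperature and humidity; score % control vs untreated 6–8 days later.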

[3] = test system: Puccinia recondita f. Sp. Tritici; assay: Fungicidal activity against Puccinia recondita f. sp. tritici / wheat / leaf disc preventative (brown rust); assay type: in vivo; settings: foliar, 200 ppm in the applied formulation, wheat leaf segments, preventative, compared to untreated control leaf disks, read-out: disease control
In short: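 Percent disease control relative to untreated check segments is scored once disease develops, 7 to 9 days after application. Wheat cv. Kanzler segments receive compound spray (200 ppm in formulation) one day before spore inoculation, then sit at 19° C. and 75% rh under 12 h light/12 h dark.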

CC(=O)OCC(=O)N(Cc1ccc(-c2noc(C(F)(F)F)n2)cc1)CC1CCCO1 (stereo not drawn) [Compound 1.435, [2-oxo-2-[tetrahydrofuran-2-ylmethyl-[[4-[5-(trifluoromethyl)-1,2,4-oxadiazol-3-yl]phenyl]methyl]-amino]ethyl] acetate]
≥ 80%: inhibition of growth at 20 ppm [1] | pest or weed control at 200 ppm [2] | pest or weed control at 200 ppm [3]

CC1(C(=O)N(Cc2ccc(-c3noc(C(F)(F)F)n3)cc2)Cc2ccco2)COC1 [Compound 1.468, N-(2-furylmethyl)-3-methyl-N-[[4-[5-(trifluoromethyl)-1,2,4-oxadiazol-3-yl]phenyl]methyl]-oxetane-3-carboxamide]
≥ 80%: inhibition of growth at 20 ppm [1] | pest or weed control at 200 ppm [2] | pest or weed control at 200 ppm [3]

COCC(=O)N(Cc1ccc(-c2noc(C(F)(F)F)n2)cc1)Cc1ccco1 [Compound 1.459, N-(2-furylmethyl)-2-methoxy-N-[[4-[5-(trifluoromethyl)-1,2,4-oxadiazol-3-yl]phenyl]methyl]-acetamide]
≥ 80%: inhibition of growth at 20 ppm [1] | pest or weed control at 200 ppm [2] | pest or weed control at 200 ppm [3]

COCCOCC(=O)N(Cc1ccc(-c2noc(C(F)(F)F)n2)cc1)CC1CCCO1 (stereo not drawn) [Compound 1.427, 2-(2-methoxyethoxy)-N-(tetrahydrofuran-2-ylmethyl)-N-[[4-[5-(trifluoromethyl)-1,2,4-oxadiazol-3-yl]phenyl]methyl]-acetamide]
≥ 80%: inhibition of growth at 20 ppm [1] | pest or weed control at 200 ppm [2] | pest or weed control at 200 ppm [3]

COCCN(Cc1ccc(-c2noc(C(F)(F)F)n2)cc1)C(C)=O [Compound 1.364, N-(2-methoxyethyl)-N-[[4-[5-(trifluoromethyl)-1,2,4-oxadiazol-3-yl]phenyl]methyl]-acetamide]
≥ 80%: inhibition of growth at 20 ppm [1] | pest or weed control at 200 ppm [2] | pest or weed control at 200 ppm [3]

COCCN(Cc1ccc(-c2noc(C(F)(F)F)n2)cc1)C(=O)COC [Compound 1.328, 2-methoxy-N-(2-methoxyethyl)-N-[[4-[5-(trifluoromethyl)-1,2,4-oxadiazol-3-yl]phenyl]methyl]-acetamide]
≥ 80%: inhibition of growth at 20 ppm [1] | pest or weed control at 200 ppm [2] | pest or weed control at 200 ppm [3]

CON(C(=O)C1CCCCO1)C(C)c1ccc(-c2noc(C(F)(F)F)n2)cc1 (stereo not drawn) [Compound 1.249, N-methoxy-N-[1-[4-[5-(trifluoromethyl)-1,2,4-oxadiazol-3-yl]phenyl]ethyl]-tetrahydropyran-2-carboxamide]
≥ 80%: inhibition of growth at 20 ppm [1] | pest or weed control at 200 ppm [2] | pest or weed control at 200 ppm [3]

COCCC(=O)N(Cc1ccc(-c2noc(C(F)(F)F)n2)cc1)CC1CCCO1 (stereo not drawn) [Compound 1.422, 3-methoxy-N-(tetrahydrofuran-2-ylmethyl)-N-[[4-[5-(trifluoromethyl)-1,2,4-oxadiazol-3-yl]phenyl]methyl]-propanamide]
≥ 80%: inhibition of growth at 20 ppm [1] | pest or weed control at 200 ppm [2] | pest or weed control at 200 ppm [3]

CCCON(Cc1ccc(-c2noc(C(F)(F)F)n2)cc1)C(=O)C(C)CC (stereo not drawn) [Compound 1.308, 2-methyl-N-propoxy-N-[[4-[5-(trifiuoromethyl)-1,2,4-oxadiazol-3-yl]phenyl]methyl]-butanamide]
≥ 80%: inhibition of growth at 20 ppm [1] | pest or weed control at 200 ppm [2] | pest or weed control at 200 ppm [3]

COCCN(CCOC)C(=O)N(C)Cc1ccc(-c2noc(C(F)(F)F)n2)cc1 [Compound 3.84, 1,1-bis(2-methoxyethyl)-3-methyl-3-[[4-[5-(trifluoromethyl)-1,2,4-oxadiazol-3-yl]phenyl]methyl]urea]
≥ 80%: inhibition of growth at 20 ppm [1] | pest or weed control at 200 ppm [2] | pest or weed control at 200 ppm [3]

O=C(Cc1ccc(Cl)cc1)N(Cc1ccc(-c2noc(C(F)(F)F)n2)cc1)C1CC1 [Compound 1.127, 2-(4-chlorophenyl)-N-cyclopropyl-N-[[4-[5-(trifluoromethyl)-1,2,4-oxadiazol-3-yl]phenyl]methyl]-acetamide]
≥ 80%: inhibition of growth at 20 ppm [1] | pest or weed control at 200 ppm [2] | pest or weed control at 200 ppm [3]

C=CCN(C)C(=O)N(C)Cc1ccc(-c2noc(C(F)(F)F)n2)cc1 [Compound 3.78, 1-allyl-1,3-dimethyl-3-[[4-[5-(trifluoromethyl)-1,2,4-oxadiazol-3-yl]phenyl]methyl]urea]
≥ 80%: inhibition of growth at 20 ppm [1] | pest or weed control at 200 ppm [2] | pest or weed control at 200 ppm [3]

CON(C(=O)C1OCCO1)C(C)c1ccc(-c2noc(C(F)(F)F)n2)cc1 (stereo not drawn) [Compound 1.276, N-methoxy-N-[1-[4-[5-(trifluoromethyl)-1,2,4-oxadiazol-3-yl]phenyl]ethyl]-1,3-dioxolane-2-carboxamide]
≥ 80%: inhibition of growth at 20 ppm [1] | pest or weed control at 200 ppm [2] | pest or weed control at 200 ppm [3]

CCN(CC)C(=O)N(Cc1ccc(-c2noc(C(F)(F)F)n2)cc1)OC [Compound 3.64, 1,1-diethyl-3-methoxy-3-[[4-[5-(trifluoromethyl)-1,2,4-oxadiazol-3-yl]phenyl]methyl]urea]
≥ 80%: inhibition of growth at 20 ppm [1] | pest or weed control at 200 ppm [2] | pest or weed control at 200 ppm [3]

CN(Cc1ccc(-c2noc(C(F)(F)F)n2)cc1)C(=O)N1CCCC1 [Compound 3.74, N-methyl-N-[[4-[5-(trifluoromethyl)-1,2,4-oxadiazol-3-yl]phenyl]methyl]-pyrrolidine-1-carboxamide]
≥ 80%: inhibition of growth at 20 ppm [1] | pest or weed control at 200 ppm [2] | pest or weed control at 200 ppm [3]

O=C(c1cccc2nnsc12)N(Cc1ccc(-c2noc(C(F)(F)F)n2)cc1)C1CC1 [Compound 1.139, N-cyclopropyl-N-[[4-[5-(trifluoromethyl)-1,2,4-oxadiazol-3-yl]phenyl]methyl]-1,2,3-benzothiadiazole-7-carboxamide]
≥ 80%: inhibition of growth at 20 ppm [1] | pest or weed control at 200 ppm [2] | pest or weed control at 200 ppm [3]

C=CCN(Cc1ccc(-c2noc(C(F)(F)F)n2)cc1)C(=O)CC#N [Compound 1.490, N-allyl-2-cyano-N-[[4-[5-(trifluoromethyl)-1,2,4-oxadiazol-3-yl]phenyl]methyl]-acetamide]
≥ 80%: inhibition of growth at 20 ppm [1] | pest or weed control at 200 ppm [2] | pest or weed control at 200 ppm [3]

CCOCC(=O)N(Cc1ccc(-c2noc(C(F)(F)F)n2)cc1)CC1CCCO1 (stereo not drawn) [Compound 1.426, 2-ethoxy-N-(tetrahydrofuran-2-ylmethyl)-N-[[4-[5-(trifluoromethyl)-1,2,4-oxadiazol-3-yl]phenyl]methyl]-acetamide]
≥ 80%: inhibition of growth at 20 ppm [1] | pest or weed control at 200 ppm [2] | pest or weed control at 200 ppm [3]

CCN(Cc1ccc(-c2noc(C(F)(F)F)n2)cc1)C(=O)N(C)CCOC [Compound 3.85, 1-ethyl-3-(2-methoxyethyl)-3-methyl-1-[[4-[5-(trifluoromethyl)-1,2,4-oxadiazol-3-yl]phenyl]methyl]urea]
≥ 80%: inhibition of growth at 20 ppm [1] | pest or weed control at 200 ppm [2] | pest or weed control at 200 ppm [3]

CC(C)(C)C(=O)N(Cc1ccc(-c2noc(C(F)(F)F)n2)cc1)CC1CC1 [Compound 1.225, N-(cyclopropylmethyl)-2,2-dimethyl-N-[[4-[5-(trifluoromethyl)-1,2,4-oxadiazol-3-yl]phenyl]methyl]-propanamide]
≥ 80%: inhibition of growth at 20 ppm [1] | pest or weed control at 200 ppm [2] | pest or weed control at 200 ppm [3]

CCOC(=O)CN(C)C(=O)N(C)Cc1ccc(-c2noc(C(F)(F)F)n2)cc1 [Compound 3.73, ethyl 2-[methyl-[methyl-[[4-[5-(trifluoromethyl)-1,2,4-oxadiazol-3-yl]phenyl]methyl]-carbamoyl- ]amino]acetate]
≥ 80%: inhibition of growth at 20 ppm [1] | pest or weed control at 200 ppm [2] | pest or weed control at 200 ppm [3]

O=C(C1OCCO1)N(Cc1ccc(-c2noc(C(F)(F)F)n2)cc1)CC1CCCO1 (stereo not drawn) [Compound 1.447, N-(tetrahydrofuran-2-ylmethyl)-N-[[4-[5-(trifluoromethyl)-1,2,4-oxadiazol-3-yl]phenyl]methyl]-1,3-dioxolane-2-carboxamide]
≥ 80%: inhibition of growth at 20 ppm [1] | pest or weed control at 200 ppm [2] | pest or weed control at 200 ppm [3]

C#CC(=O)N(Cc1ccc(-c2noc(C(F)(F)F)n2)cc1)C(C)CC (stereo not drawn) [Compound 1.391, N-sec-butyl-N-[[4-[5-(trifluoromethyl)-1,2,4-oxadiazol-3-yl]phenyl]methyl]-prop-2-ynamide]
≥ 80%: inhibition of growth at 20 ppm [1] | pest or weed control at 200 ppm [2] | pest or weed control at 200 ppm [3]

CCC(COC)C(=O)N(Cc1ccc(-c2noc(C(F)(F)F)n2)cc1)CC1CC1 (stereo not drawn) [Compound 1.237, N-(cyclopropylmethyl)-2-(methoxymethyl)-N-[[4-[5-(trifluoromethyl)-1,2,4-oxadiazol-3-yl]phenyl]methyl]-butanamide]
≥ 80%: inhibition of growth at 20 ppm [1] | pest or weed control at 200 ppm [2] | pest or weed control at 200 ppm [3]

CCOC(=O)N(Cc1ccc(-c2noc(C(F)(F)F)n2)cc1)OC [Compound 2.1, ethyl N-methoxy-N-[[4-[5-(trifluoromethyl)-1,2,4-oxadiazol-3-yl]phenyl]methyl]-carbamate]
≥ 80%: inhibition of growth at 20 ppm [1] | pest or weed control at 200 ppm [2] | pest or weed control at 200 ppm [3]

— patent US11180462B2, “Microbiocidal oxadiazole derivatives” (SYNGENTA PARTICIPATIONS AG, priority 2015, dated 2021)
